Where two headings read alike, the source gives them in different places.
Molecular target: CSF-1R (Homo sapiens, UniProt P07333)
Assay: Peptide (non-phosphorylated) assay, fluorescence polarization competition immunoassay
Type: biochemical
Details: 308 μM SYEGNSYTFIDPTQ peptide, 1 mM ATP, 80 min, mean of at least three determinations
Method in brief: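 Read-out is fluorescence polarization: after EDTA quench, anti-phosphotyrosine antibody plus PTK green tracer compete with the phosphorylated peptide for 30 min. The CSF-1R reaction itself ran 80 min at room temperature after ATP addition. DMSO (4%) wells served as controls, positive controls pre-treated with EDTA.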

[1] = 0.7 nM CSF-1R, read-out: c-fms Peptide IC50

Sequence of CSF-1R (P07333 20-972): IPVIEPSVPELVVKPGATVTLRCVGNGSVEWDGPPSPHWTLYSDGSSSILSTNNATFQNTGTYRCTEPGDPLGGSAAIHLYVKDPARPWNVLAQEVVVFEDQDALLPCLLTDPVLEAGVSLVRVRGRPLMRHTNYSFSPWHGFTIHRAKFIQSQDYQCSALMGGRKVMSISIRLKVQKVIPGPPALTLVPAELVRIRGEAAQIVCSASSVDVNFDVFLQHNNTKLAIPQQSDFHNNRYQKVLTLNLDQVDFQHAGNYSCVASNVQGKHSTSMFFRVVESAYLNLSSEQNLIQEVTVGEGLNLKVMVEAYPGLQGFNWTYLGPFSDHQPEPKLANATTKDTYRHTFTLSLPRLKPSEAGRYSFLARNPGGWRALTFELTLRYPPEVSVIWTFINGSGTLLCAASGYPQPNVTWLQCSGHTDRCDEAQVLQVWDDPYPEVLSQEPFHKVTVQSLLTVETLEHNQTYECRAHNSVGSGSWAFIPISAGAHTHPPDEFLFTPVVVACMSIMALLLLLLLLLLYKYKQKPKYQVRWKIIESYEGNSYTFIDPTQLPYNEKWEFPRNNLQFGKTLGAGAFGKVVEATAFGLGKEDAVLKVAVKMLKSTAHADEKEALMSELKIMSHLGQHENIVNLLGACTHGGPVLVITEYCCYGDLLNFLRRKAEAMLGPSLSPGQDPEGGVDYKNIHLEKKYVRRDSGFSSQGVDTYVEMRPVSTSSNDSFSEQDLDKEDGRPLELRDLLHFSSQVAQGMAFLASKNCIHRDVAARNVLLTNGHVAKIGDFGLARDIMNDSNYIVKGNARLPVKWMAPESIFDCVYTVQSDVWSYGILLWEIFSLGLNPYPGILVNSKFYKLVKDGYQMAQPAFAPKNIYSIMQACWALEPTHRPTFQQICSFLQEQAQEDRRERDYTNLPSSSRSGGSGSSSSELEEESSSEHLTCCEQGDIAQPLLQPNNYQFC

SMILES	IC50 [1]	IC50 (c-fms Peptide IC50, 0.7 nM CSF-1R)
CCN1CCC(c2ccc(Nc3ncc4c(=O)c(C(=O)NOC)cn(-c5ccc6c(c5)CCC6)c4n3)cc2)CC1 [Cpd 155, 2-[4-(1-ethyl-piperidin-4-yl)-phenylamino]-8-indan-5-yl-5-oxo-5,8-dihydro-pyrido[2,3-d]pyrimidine-6-carboxylic acid methoxy-amide]	0.12 nM	–
CONC(=O)c1cn(-c2ccc3ccccc3c2)c2nc(Nc3ccc(C4CCN(C)CC4)cc3)ncc2c1=O [Cpd 303, 2-[4-(1-methyl-piperidin-4-yl)-phenylamino]-8-naphthalen-2-yl-5-oxo-5,8-dihydro-pyrido[2,3-d]pyrimidine-6-carboxylic acid methoxy-amide]	1 nM	–
CCONC(=O)c1cn(C2CCCCC2)c2nc(Nc3ccc(C[C@H]4COC(=O)N4)cc3)ncc2c1=O [Cpd 23, (S)-8-cyclohexyl-5-oxo-2-[4-(2-oxo-oxazolidin-4-ylmethyl)-phenylamino]-5,8-dihydro-pyrido[2,3-d]pyrimidine-6-carboxylic acid ethoxy-amide]	3 nM	–
CN(C)C(=O)Cc1ccc(Nc2ncc3c(=O)c(C(N)=O)cn(-c4ccc5c(c4)CCC5)c3n2)cc1 [Cpd 118, 2-(4-dimethylcarbamoylmethyl-phenylamino)-8-indan-5-yl-5-oxo-5,8-dihydro-pyrido[2,3-d]pyrimidine-6-carboxylic acid amide]	4.5 nM	–
CONC(=O)c1cn(-c2ccc3c(c2)CCC3)c2nc(Nc3ccc(C(=O)NS(C)(=O)=O)cc3)ncc2c1=O [Cpd 214, 8-indan-5-yl-2-(4-methanesulfonylaminocarbonyl-phenylamino)-5-oxo-5,8-dihydro-pyrido[2,3-d]pyrimidine-6-carboxylic acid methoxy-amide]	1.6 nM	–
CONC(=O)c1cn(-c2ccc3c(c2)CCC3)c2nc(Nc3ccc(CCN4CCOCC4)cc3)ncc2c1=O [Cpd 80, 8-indan-5-yl-2-[4-(2-morpholin-4-yl-ethyl)-phenylamino]-5-oxo-5,8-dihydro-pyrido[2,3-d]pyrimidine-6-carboxylic acid methoxy-amide]	–	1.3 nM
CONC(=O)c1cn(-c2ccc3c(c2)CCC3)c2nc(Nc3ccc(CC(=O)N4CCN(C)CC4)cc3)ncc2c1=O [Cpd 152, 8-indan-5-yl-2-{4-[2-(4-methylpiperazin-1-yl)-2-oxo-ethyl]-phenylamino}-5-oxo-5,8-dihydro-pyrido[2,3-d]pyrimidine-6-carboxylic acid methoxy-amide]	1.5 nM	–
CCc1ccc(-n2cc(C(=O)NOC)c(=O)c3cnc(Nc4ccc(OC5CCN(CC)CC5)cc4)nc32)cc1 [Cpd 310, 8-(4-ethyl-phenyl)-2-[4-(1-ethyl-piperidin-4-yloxy)-phenylamino]-5-oxo-5,8-dihydro-pyrido[2,3-d]pyrimidine-6-carboxylic acid methoxy-amide]	0.5 nM	–
CN1CCN(CCc2ccc(Nc3ncc4c(=O)c(C(=O)N5CCCCC5)cn(-c5ccc6c(c5)CCC6)c4n3)cc2)CC1 [Cpd 64, 8-indan-5-yl-2-{4-[2-(4-methyl-piperazin-1-yl)-ethyl]-phenylamino}-6-(piperidine-1-carbonyl)-8H-pyrido[2,3-d]pyrimidin-5-one]	180 nM	–

Continued by falling IC50 [1], values first:

IC50 [1]	IC50 (c-fms Peptide IC50, 0.7 nM CSF-1R)	SMILES
9.7 nM	–	CCONC(=O)c1cn(-c2ccc(CC)cc2)c2nc(Nc3ccc(C4CCN(CC(F)(F)F)CC4)cc3)ncc2c1=O [Cpd 189, 8-(4-ethyl-phenyl)-5-oxo-2-{4-[1-(2,2,2-trifluoro-ethyl)-piperidin-4-yl]-phenylamino}-5,8-dihydro-pyrido[2,3-d]pyrimidine-6-carboxylic acid ethoxy-amide]
2.5 nM	–	CCN1CCCC1CNC(=O)c1cccc(Nc2ncc3c(=O)c(C(=O)NOC)cn(-c4ccc5c(c4)CCC5)c3n2)c1 (stereo not drawn) [Cpd 193, 2-{3-[(1-ethyl-pyrrolidin-2-ylmethyl)-carbamoyl]-phenylamino}-8-indan-5-yl-5-oxo-5,8-dihydro-pyrido[2,3-d]pyrimidine-6-carboxylic acid methoxy-amide]
1.5 nM	–	CCc1ccc(-n2cc(C(=O)NOC)c(=O)c3cnc(Nc4ccc5cn[nH]c5c4)nc32)cc1 [Cpd 288, 8-(4-ethyl-phenyl)-2-(1H-indazol-6-ylamino)-5-oxo-5,8-dihydro-pyrido[2,3-d]pyrimidine-6-carboxylic acid methoxy-amide]
1.2 nM	–	CCc1ccc(-n2cc(C(=O)NOC)c(=O)c3cnc(Nc4ccc(OCCOC)cc4)nc32)cc1 [Cpd 257, 8-(4-ethyl-phenyl)-2-[4-(2-methoxy-ethoxy)-phenylamino]-5-oxo-5,8-dihydro-pyrido[2,3-d]pyrimidine-6-carboxylic acid methoxy-amide]
0.8 nM	–	CCc1ccc(-n2cc(C(=O)NOC)c(=O)c3cnc(Nc4ccc(O[C@@H]5O[C@H](CO)[C@@H](O)[C@H](O)[C@@H]5O)cc4)nc32)cc1 [Cpd 296, 8-(4-ethyl-phenyl)-5-oxo-2-{4-[(2S,3S,4S,5S,6R)(3,4,5-trihydroxy-6-hydroxymethyl-tetrahydro-pyran-2-yloxy)]-phenylamino}-5,8-dihydro-pyrido[2,3-d]pyrimidine-6-carboxylic acid methoxy-amide]
0.72 nM	–	CONC(=O)c1cn(-c2ccc3c(c2)CCC3)c2nc(Nc3ccc(C4CCN(CCS(C)(=O)=O)CC4)cc3)ncc2c1=O [Cpd 78, 8-indan-5-yl-2-{4-[1-(2-methanesulfonyl-ethyl)-piperidin-4-yl]-phenylamino}-5-oxo-5,8-dihydro-pyrido[2,3-d]pyrimidine-6-carboxylic acid methoxy-amide]
0.68 nM	–	CCc1ccc(-n2cc(C(=O)NOC)c(=O)c3cnc(Nc4cccc(NC(=O)CN(C)C)c4)nc32)cc1 [Cpd 228, 2-[3-(2-dimethylamino-acetylamino)-phenylamino]-8-(4-ethyl-phenyl)-5-oxo-5,8-dihydro-pyrido[2,3-d]pyrimidine-6-carboxylic acid methoxy-amide]
0.68 nM	–	CONC(=O)c1cn(-c2ccc3c(c2)CCC3)c2nc(Nc3ccc(CCN4CCN(C)CC4)cc3)ncc2c1=O [Cpd 61, 8-indan-5-yl-2-{4-[2-(4-methyl-piperazin-1-yl)-ethyl]-phenylamino}-5-oxo-5,8-dihydro-pyrido[2,3-d]pyrimidine-6-carboxylic acid methoxy-amide]
0.6 nM	–	CCc1ccc(-n2cc(C(=O)NOC)c(=O)c3cnc(Nc4ccc5c(c4)CC(=O)N5)nc32)cc1 [Cpd 304, 8-(4-ethyl-phenyl)-5-oxo-2-(2-oxo-2,3-dihydro-1H-indol-5-ylamino)-5,8-dihydro-pyrido[2,3-d]pyrimidine-6-carboxylic acid methoxy-amide]
0.56 nM	–	CCN1CC[C@H](Oc2cccc(Nc3ncc4c(=O)c(C(=O)NOC)cn(-c5ccc6c(c5)CCC6)c4n3)c2)C1 [Cpd 263, 2-{3-[(3S)-(1-ethyl-pyrrolidin-3-yloxy)]-phenylamino}-8-indan-5-yl-5-oxo-5,8-dihydro-pyrido[2,3-d]pyrimidine-6-carboxylic acid methoxy-amide]
0.54 nM	–	CONC(=O)c1cn(-c2ccc3c(c2)CCC3)c2nc(Nc3ccc(C4=CCN(C)CC4)cc3)ncc2c1=O [Cpd 235, 8-indan-5-yl-2-[4-(1-methyl-1,2,3,6-tetrahydro-pyridin-4-yl)-phenylamino]-5-oxo-5,8-dihydro-pyrido[2,3-d]pyrimidine-6-carboxylic acid methoxy-amide]
0.19 nM	–	CCONC(=O)c1cn(C2CCCCC2)c2nc(Nc3ccc(CCN4CCCC4)cc3)ncc2c1=O [Cpd 15, 8-cyclohexyl-5-oxo-2-[4-(2-pyrrolidin-1-yl-ethyl)-phenylamino]-5,8-dihydro-pyrido[2,3-d]pyrimidine-6-carboxylic acid ethoxy-amide]

Reference: US20080114007A1 (priority 2006, published 2008)
